Source: patent publication EP4741386A1 (Jiangsu Yahong Meditech Co., Ltd., priority 2023, dated 2025)

What was measured:
[1] = molecular target: T1, Recombinant human His6-USP1/His6-UAF1 complex protein (Homo sapiens, UniProt O94782); test: In vitro inhibitory activity against USP1 (Ubiquitin Rhodamine 110 fluorescence detection, 384-well plate); assay type: biochemical; conditions: Ub-Rho substrate, 1 hour pre-incubation, read after 30 minutes
T1 construct: His6; purchased R&D E-568-050
Procedure: Test Example 1: In vitro inhibitory activity against USP1 […]
Experimental object: to screen compounds with inhibitory activity against USP1 […] by a fluorescence detection method, using a 384-well plate.
Experimental materials: Recombinant human His6-USP1/His6-UAF1 complex protein (R&D, Cat. No.: E-568-050), Ubiquitin Rhodamine 110 protein (Ub-Rho) (R&D, Cat. No.: U-555-050), 384-well plate (Perkin Elmer, Cat. No.: 6007279); all compounds were dissolved in 100% DMSO to obtain 50 mM stock solutions.
• 1) Preparation of 1 × assay buffer: 1 × assay buffer (modified Tris buffer) was prepared; • 2) Dilution of compounds: the compounds were transferred to an assay plate via Echo.

[2] = tested on: MDA-MB-436; test: CTG experiment for cell viability (CellTiter-Glo, 96-well plate, 7 days); assay type: cell-based; conditions: Homo sapiens, MDA-MB-436, 168 h, MDA-MB-436 cells, 7 days culture with compound
Procedure: Test Example 2: CTG experiment for cell viability
• 1. Object: to screen USP1 inhibitors by a CTG assay, using a 96-well plate. • 2. Materials: • The cells used were MDA-MB-436 (manufacturer: Nanjing Cobioer Biotechnology Co., Ltd.) and cultured in DMEM medium, • CTG (CellTiter-Glo® Luminescent Cell Viability Assay kit) (Promega, Cat. No.: G7572), • 96-well plate (Corning, Cat. No.: 3610). • 3. Compounds: all compounds were dissolved in 100% DMSO to obtain 50 mM stock solutions. • 4. Experimental method: • ① Plating: The cells to be tested were spread into a 96-well plate at a certain density, with 200 µL per well, and 200 µL of cell medium was added to the blank wells. […] The cell plate with the compounds was placed in an incubator at 37°C, and further cultured for 7 days prior to detection. • ④ Assay: The substrate and the buffer of CTG kit were mixed evenly. The cell plate with the compounds in Step ③ was taken out from the incubator, and left at room temperature to equilibrate for 30 minutes. The medium containing the compounds was removed from the cell plate, 100 µL of PBS and 50 µL of CTG reagent were added to each well, shaken and mixed for 3 minutes, and then incubated for 10 minutes at room temperature. The plate was read by a BIotek microplate-reader, with a parameter set to 567 CPM. • 5. Curve fitting
It was the same as that for the enzyme.

T1 sequence (O94782 whole entry): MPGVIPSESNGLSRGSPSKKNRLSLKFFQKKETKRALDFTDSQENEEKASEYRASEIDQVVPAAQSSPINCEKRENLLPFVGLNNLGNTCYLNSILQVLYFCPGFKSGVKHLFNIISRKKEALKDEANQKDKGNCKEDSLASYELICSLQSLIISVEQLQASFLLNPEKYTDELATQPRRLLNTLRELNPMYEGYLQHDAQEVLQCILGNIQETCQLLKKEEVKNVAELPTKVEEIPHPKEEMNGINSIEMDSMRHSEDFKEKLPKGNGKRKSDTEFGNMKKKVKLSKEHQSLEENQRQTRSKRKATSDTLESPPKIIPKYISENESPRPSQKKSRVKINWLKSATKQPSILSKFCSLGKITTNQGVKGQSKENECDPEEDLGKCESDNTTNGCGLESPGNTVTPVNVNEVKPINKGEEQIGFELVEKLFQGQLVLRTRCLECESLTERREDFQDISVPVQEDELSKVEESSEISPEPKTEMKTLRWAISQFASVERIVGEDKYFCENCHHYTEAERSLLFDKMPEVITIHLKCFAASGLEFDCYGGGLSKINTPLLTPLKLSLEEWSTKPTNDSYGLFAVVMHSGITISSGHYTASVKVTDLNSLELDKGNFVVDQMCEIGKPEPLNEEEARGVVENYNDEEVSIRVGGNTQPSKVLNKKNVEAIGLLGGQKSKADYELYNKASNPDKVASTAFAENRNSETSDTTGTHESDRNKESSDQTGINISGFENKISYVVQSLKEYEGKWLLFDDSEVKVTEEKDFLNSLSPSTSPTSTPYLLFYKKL
T1 sequence (Q8TAF3 whole entry partner): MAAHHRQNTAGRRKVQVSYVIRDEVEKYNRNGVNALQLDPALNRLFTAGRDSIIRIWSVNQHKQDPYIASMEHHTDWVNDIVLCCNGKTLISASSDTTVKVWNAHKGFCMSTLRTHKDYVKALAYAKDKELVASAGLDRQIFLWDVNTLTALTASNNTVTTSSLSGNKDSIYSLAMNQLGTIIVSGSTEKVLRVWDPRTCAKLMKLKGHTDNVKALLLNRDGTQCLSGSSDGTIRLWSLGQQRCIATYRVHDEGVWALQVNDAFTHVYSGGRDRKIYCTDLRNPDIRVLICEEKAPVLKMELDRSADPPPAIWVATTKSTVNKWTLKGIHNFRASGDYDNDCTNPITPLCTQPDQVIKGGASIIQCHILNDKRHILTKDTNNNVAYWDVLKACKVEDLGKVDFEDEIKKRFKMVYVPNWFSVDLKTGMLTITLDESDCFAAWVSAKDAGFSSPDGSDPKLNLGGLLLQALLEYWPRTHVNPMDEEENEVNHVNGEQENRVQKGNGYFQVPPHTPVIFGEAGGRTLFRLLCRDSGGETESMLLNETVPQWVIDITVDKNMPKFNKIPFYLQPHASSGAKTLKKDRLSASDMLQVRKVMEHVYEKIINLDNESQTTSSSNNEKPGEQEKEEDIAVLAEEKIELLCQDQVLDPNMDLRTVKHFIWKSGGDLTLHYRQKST

Row | SMILES | IC50 [1] [nM] | IC50 [2] [nM]
1 | COc1cnc(-c2c(OC)ncnc2C2CC2)nc1NCC1CCN(c2nc(C(F)(F)F)cn2C)CC1 [Example 95, 4'-Cyclopropyl-5,6'-dimethoxy-N-((1-(1-methyl-4-(trifluoromethyl)-1H-imidazol-2-yl)piperidin-4-yl)methyl)-[2,5'-bipyrimidin]-4-amine] | 8.4 | 75.1
2 | [2H]C([2H])([2H])N(C[C@H]1CC[C@H](c2nc(C(F)(F)F)cn2C)CC1)c1nc(-c2c(OC)ncnc2C2CC2)ncc1OC [Example S22, 4'-Cyclopropyl-5,6'-dimethoxy-N-(methyl-d3)-N-(((1r,4r)-4-(1-methyl-4-(trifluoromethyl)-1H-imidazol-2-yl)cyclohexyl)methyl)-[2,5'-bipyrimidin]-4-amine] | 4.6 | 4.5
3 | COc1ncnc(C2CC2)c1-c1ncc(OC(C)C)c(N(C)Cc2ccc(-c3nc(C(F)(F)F)cn3C)cc2)n1 [Example 109, 4'-Cyclopropyl-5-isopropoxy-6'-methoxy-N-methyl-N-(4-(1-methyl-4-(trifluoromethyl)-1H-imidazol-2-yl)benzyl)-[2,5'-bipyrimidin]-4-amine] | 5.3 | 48.3
4 | COc1cnc(-c2cccc3c2N(C)CC3)nc1NCc1ccc(-c2nc(C(F)(F)F)cn2C)cc1 [Example 145, 5-Methoxy-N-(4-(1-methyl-4-(trifluoromethyl)-1H-imidazol-2-yl)benzyl)-2-(1-methylindolin-7-yl)pyrimidin-4-amine] | 19 | 731
5 | COc1cnc(-c2c(Cl)cnn2C(C)C)nc1N(C)CC1CCN(c2ccccn2)CC1 [Example 161, 2-(4-Chloro-1-isopropyl-1H-pyrazol-5-yl)-5-methoxy-N-methyl-N-((1-(pyridin-2-yl)piperidin-4-yl)methyl)pyrimidin-4-amine] | 6 | 537
6 | COc1cc(-c2nc(C(F)(F)F)cn2C)ccc1CNc1nc(-c2c(OC)ncnc2C2CC2)nc2ccoc12 [Example 119, 2-(4-Cyclopropyl-6-methoxypyrimidin-5-yl)-N-(2-methoxy-4-(1-methyl-4-(trifluoromethyl)-1H-imidazol-2-yl)benzyl)furo[3,2-d]pyrimidin-4-amine] | 7.6 | 16.9
7 | COc1cnc(-c2c(OC)ncnc2C2CC2)nc1NCc1ccc(-c2nc(C(F)(F)F)cn2CC(F)(F)F)cc1 [Example S7, 4'-Cyclopropyl-56'-dimethoxy-N-(4-(1-(2,2,2-trifluoroethyl)-4-(trifluoromethyl)-1H-imidazol-2-yl)benzyl)-[2,5'-bipyrimidin]-4-amine] | 12 | 17.1
8 | CC(C)Oc1cnc(-c2ccccc2C(C)C)nc1N(C)CC1CCN(c2nc(C(F)(F)F)cn2C)CC1 [Example 70, 5-Isopropoxy-2-(2-isopropylphenyl)-N-methyl-N-((1-(1-methyl-4-(trifluoromethyl)-1H-imidazol-2-yl)piperidin-4-yl)methyl)pyrimidin-4-amine] | 19.4 | 600
9 | COc1cnc(-c2c(Cl)cnn2C(C)C)nc1N(C)CC12CCC(c3nc(C(F)(F)F)cn3C)(CC1)OC2 [Example S17, 2-(4-Chloro-1-isopropyl-1H-pyrazol-5-yl)-5-methoxy-N-methyl-N-((1-(1-methyl-4-(trifluoromethyl)-1H-imidazol-2-yl)-2-oxabicyclo[2.2.2]oct-4-yl)methyl)pyrimidin-4-amine] | 6.1 | 35.9
10 | COc1cnc(-c2c(OC)ncnc2OC)nc1NC[C@H]1CC[C@H](c2nc(C(F)(F)F)cn2C2CC2)CC1 [Example S29, N-(((1R,4R)-4-(1-cyclopropyl-4-(trifluoromethyl)-1H-imidazol-2-yl)cyclohexyl)methyl)-4',5,6'-trimethoxy-[2,5'-bipyrimidin]-4-amine] | 15 | 338
11 | Cn1cc(C(F)(F)F)nc1-c1ccc(CNc2nc(-c3cncnc3C3CC3)nc3ccoc23)cc1 [Example 196, 2-(4-Cyclopropylpyrimidin-5-yl)-N-(4-(1-methyl-4-(trifluoromethyl)-1H-imidazol-2-yl)benzyl)furo[3,2-d]pyrimidin-4-amine] | 12 | 82.1
12 | COc1cc(-n2nc(C(F)(F)F)cc2C)ccc1CNc1nc(-c2c(OC)ncnc2C2CC2)nc2ccoc12 [Example 121, 2-(4-Cyclopropyl-6-methoxypyrimidin-5-yl)-N-(2-methoxy-4-(5-methyl-3-(trifluoromethyl)-1H-pyrazol-1-yl)benzyl)furo[3,2-d]pyrimidin-4-amine] | 8.3 | 23.9
13 | COc1cnc(-c2c(OC)ncnc2C2CC2)nc1NCc1ccc(-c2nc(C(F)(F)F)cn2C)cc1 [Example 96, 4'-Cyclopropyl-5,6'-dimethoxy-N-(4-(1-methyl-4-(trifluoromethyl)-1H-imidazol-2-yl)benzyl)-[2,5'-bipyrimidin]-4-amine] | 4.8 | 12
14 | COc1cc(-n2nc(C(F)(F)F)cc2C)ccc1CNc1nc(-c2ccccc2C(C)C)nc2ccoc12 [Example 83, 2-(2-Isopropylphenyl)-N-(2-methoxy-4-(5-methyl-3-(trifluoromethyl)-1H-pyrazol-1-yl)benzyl)furo[3,2-d]pyrimidin-4-amine] | 4.4 | 99.1
15 | COc1cnc(-c2c(OC)ncnc2C2CC2)nc1NCc1ccc(-c2nc(C(F)(F)F)cn2CF)cc1 [Example 107, 4'-Cyclopropyl-N-(4-(1-(fluoromethyl)-4-(trifluoromethyl)-1H-imidazol-2-yl)benzyl)-5,6'-dimethoxy-[2,5'-bipyrimidin]-4-amine] | 16 | 17.5
16 | COc1cnc(-c2c(OC)ncnc2C2CC2)nc1NCc1ccc(-c2ccccn2)cc1 [Example 94, 4'-Cyclopropyl-5,6'-dimethoxy-N-(4-(pyridin-2-yl)benzyl)-[2,5'-bipyrimidin]-4-amine] | 6.5 | 275
17 | COc1cnc(-c2c(OC)ncnc2C2CC2)nc1N(O)Cc1ccc(-c2nc(C(F)(F)F)cn2C)cc1 [Example 204, N-(4'-cyclopropyl-5,6'-dimethoxy-[2,5'-bipyrimidin]-4-yl)-N-(4-(1-methyl-4-(trifluoromethyl)-1H-imidazol-2-yl)benzyl)hydroxylamine] | 25 | 15.7
18 | [2H]C([2H])([2H])N(Cc1ccc(-c2nc(C(F)(F)F)cn2CF)cc1)c1nc(-c2c(OC)ncnc2C2CC2)ncc1F [Example 130, 4'-Cyclopropyl-5-fluoro-N-(4-(1-(fluoromethyl)-4-(trifluoromethyl)-1H-imidazol-2-yl)benzyl)-6'-methoxy-N-(methyl-d3)-[2,5'-bipyrimidin]-4-amine] | 19 | 45.6
19 | COc1ncnc(C2CC2)c1-c1ncc2c(n1)N(C[C@H]1CC[C@H](c3nc(C(F)(F)F)cn3C)CC1)CCO2 [Example 22, 2-(4-Cyclopropyl-6-methoxypyrimidin-5-yl)-8-(((1r,4r)-4-(1-methyl-4-(trifluoromethyl)-1H-imidazol-2-yl)cyclohexyl)methyl)-7,8-dihydro-6H-pyrimido[5,4-b][1,4]oxazine] | 24.4 | 209
20 | CC(C)c1ccccc1-c1nc(NCc2ccc(-c3nc(C(F)(F)F)cn3C)cc2)c2occc2n1 [Example 33, 2-(2-Isopropylphenyl)-N-(4-(1-methyl-4-(trifluoromethyl)-1H-imidazol-2-yl)benzyl)furo[3,2-d]pyrimidin-4-amine] | 1.2 | 1.8
21 | COc1cc(CNc2nc(-c3ccccc3C(C)C)nc3ccoc23)ccc1-c1nc(C(F)(F)F)cn1C [Example 82, 2-(2-Isopropylphenyl)-N-(3-methoxy-4-(1-methyl-4-(trifluoromethyl)-1H-imidazol-2-yl)benzyl)furo[3,2-d]pyrimidin-4-amine] | 1.7 | 278
22 | COc1ncnc(C2CC2)c1-c1nc(NCc2ccc(-c3ccccn3)cc2)c2occc2n1 [Example 34, 2-(4-Cyclopropyl-6-methoxypyrimidin-5-yl)-N-(4-(pyridin-2-yl)benzyl)furo[3,2-d]pyrimidin-4-amine] | – | 119
23 | COc1ncnc(C2CC2)c1-c1ncc2c(n1)N(Cc1ccc(-c3nc(C(F)(F)F)cn3C)cc1)CCO2 [Example 21, 2-(4-Cyclopropyl-6-methoxypyrimidin-5-yl)-8-(4-(1-methyl-4-(trifluoromethyl)-1H-imidazol-2-yl)benzyl)-7,8-dihydro-6H-pyrimido[5,4-b][1,4]oxazine] | – | 1.8
